The values that follow come from US20190336484A1, “IL-8 INHIBITORS FOR USE IN THE TREATMENT OF SOME UROLOGICAL DISORDERS” (DOMPÉ FARMACEUTICI S.P.A., priority 2017, published 2019).

The subject of data set [1] is CXCR1/CXCR2. To be noted: Bertini R. et al, Br J Pharmacol 2012; cited from earlier work.
Data set [2] in a line: pharmacokinetic profile. The settings on record: in vivo. The source says:
In fact, as it will be illustrated in the Experimental section, Compd.

For data set [3], the system named is experimental autoimmune chronic prostatitis (EACP). In words: Experimental autoimmune chronic prostatitis (EACP), mechanical allodynia by Von Frey test. Type of data set: in vivo, Lewis male rats. To be noted: 20 mg/kg oral twice daily. The source says: The experimental autoimmune chronic prostatitis (EACP) can be easily generated in rats by specific immunization with syngeneic rat prostate homogenate. As a consequence of the strong inflammatory reaction, pelvic pain is generated, as already described (Zhang et al, Scand J Immunol 2011, 73:546-553; Zhang et al, Prostate 2012, 72:90-99; Wang et al, Int Urol Nephrol 2015, 47:307-316; Rudick et al, Am J Physiol Regul Integr Comp Physiol 2008, 294:R1268-1275).
A total of 36 Lewis male rats (250-270 g) from Charles River Italy were used for the study, according to the regulations of the Animal Ethics Committee (IACUC n.631). The rats were maintained under standard laboratory conditions at 12:12 light/dark cycle with free access to food pellets and tap water.
Each animal was initially immunized with 2 mg of syngeneic prostate protein, diluted in saline, emulsified with complete Freund adjuvant containing 2 mg/ml of H37a mycobacterium (BD). Emulsion was produced by vortexing the mix for 15 min or till obtaining appropriate viscosity. A total volume of 0.2 mL in two sites was injected into each anesthetized rat at the dorsal tail base. A booster immunization was then repeated 13 days after the first injection. […]
Effect of pelvic pain was evaluated 16 and 26 days after immunization by testing mechanical allodynia with Von Frey test. […]

The subject of data set [4] is RWPE-1 cells. Put plainly: in vitro inflammatory model of prostatitis: ROS/RNS production (DCFH-DA assay) in RWPE-1 cells exposed to conditioned medium from activated U-937. Type of data set: cell-based, human. To be noted: then CM from activated U-937, measured after 3 hours. The source says: Characterization of Compound 1 on an in vitro inflammatory model of prostatitis.
In the aim of characterizing the Compound 1 on an in vitro inflammatory prostatitis model, human prostatic normal cells RWPE-1 (ATCC, lot number 61840713) are put in communication with activated macrophages; thus it induces an inflammatory micro-environment that enhances the production of reactive oxygen and nitrogen species (Debelec-Butuner et al, Mol. Carcinogen. 2014, 53:85-97).
Human U-937 monocytes (ATCC, lot number 61795631) seeded at 50.000 cells/ml were differentiated with phorbol acetate ([…]) for 16 h. In order to stimulate cytokines production, lipopolysaccharide (LPS) was added (10 ng/ml for 24 h) and the conditioned medium (CM) collected.
After 24 h in culture, RWPE-1 cells were treated with Compound 1 (0.1, 1 and 10 μM) and then exposed to CM from activated U-937. After 3 hours, reactive oxygen species (ROS) and Reactive Nitrogen species (RNS) were quantitatively measured by means of 2′,7′-dichlorodihydrofluorescein diacetate (DCFH-DA) assay. […] DCF is a highly fluorescent compound which can be detected by fluorescence spectroscopy with maximum excitation and emission spectra of 495 nm and 529 nm respectively (Games et al, J. Biochem. Biophys. Methods 2005, 65:45-80).

In data set [5] the test system is testosterone-induced prostate hypertrophy (TBPH). Put plainly: Testosterone-induced prostate hypertrophy (TBPH), cystometry / urodynamic parameters. Type of data set: in vivo, Sprague-Dawley male rats. The settings on record: 20 mg/kg oral twice daily, 5 days a week, 4 weeks. The source says:
The study was undertaken to test the effects of chronic oral administration of Compound 1 in rats with dysfunctional bladders in an experimental model of TBPH involving an estrogen-associated inflammation (Tatemichi et al, J Urol 2006, 176:1236-1241).
A total 26 Sprague-Dawley male rats (250-270 g) were used for the study, according to the regulations of the Animal Ethics Committee (IACUC n.631). The rats were maintained under standard laboratory conditions at 12:12 light/dark cycle with free access to food pellets and tap water.
BPH was induced treating animals once a week for 4 weeks with intramuscular hormones corresponding to testosterone enanthate (Geymonat, 12.5 mg)+17β-estradiol-velerate (SIGMA, 0.125 mg) in sesame oil. […]
The conscious rats were placed in metabolic cages without restraint and the bladder catheters were connected via a T-tube to a pressure transducer (P23 DC; Statham Instruments Inc., Oxnard, Calif., USA) and a microinjection pump (CMA 100; Carnegie Medicine Aft Solna, Sweden). Micturition volumes were recorded with a fluid collector connected to a force displacement transducer (FT 03 D, Grass Instrument Co., Quincy, Mass., USA). […] Pressures and micturition volumes were recorded continuously with Acq Knowledge 3.8.1 software and a MP100 data acquisition system (Biopac Syst. Inc. Santa Barbara, Calif.) connected to a Grass polygraph (Model 7E, Grass Instrument Co).

With `C[C@@H](C(=O)NS(C)(=O)=O)c1ccc(OS(=O)(=O)C(F)(F)F)cc1.[Na]` [Compd.2, sodium salt of R(−)-2-[(4′-trifluoromethanesulfonyloxy)phenyl]-N-methanesulfonyl propionamide], in data set [1], the CXCR1/CXCR2 inhibitor character result was “potent and selective dual CXCR1/CXCR2 non-competitive allosteric inhibitor”.
On to `C[C@H](C(=O)[O-])c1ccc(Nc2nc(C(F)(F)F)cs2)cc1.[Na+]` [Compound 1, sodium salt of (2S)-2-(4-{[4-(trifluoromethyl)-1,3-thiazol-2-yl]amino}phenyl) propanoic acid], for which the “absorption (plasma)” value in data set [2] was “rapid absorption”. The “mechanical hypersensitivity and allodynia (abdomen/pelvic withdrawal threshold, Von Frey)” value in data set [3] (day 16 and 26 after immunization, compared to vehicle) is “partly decreased the mechanical hypersensitivity and allodynia reaching the statistical significance at day 26”. The “applied force eliciting response in Von Frey test, fold higher” value in data set [3] (vehicle group stimulated by 19 g, FIG. 3) is 2,8 fold. For the same compound, the “total ROS and RNS production induced by conditioned medium (CM)” value in data set [4] (Compound 1 at 1 μM) is reported as “completely reverted the CM effect”; in data set [4] (Compound 1 at 10 μM), “more modest effect in comparison to the concentration 1 μM”. In addition, in data set [5] (FIG. 4), the “post void residual volume (PVR)” value is recorded as “numerical trend in reducing”. Moreover, in data set [5] (FIG. 5), the “area under pressure/time curve (AUC, detrusor over activity)” value is on record as “numerical trend in reducing”.
